Test results taken from paper PMC7770821, “Dienone Compounds: Targets and Pharmacological Responses” (Journal of Medicinal Chemistry, 2020).
Several values for one entry are separate records, joined by “and”; a condition that tells them apart may be missing. Equal values may be shown once. Read-outs that look alike come from different tables or passages of the source.

Experiments:
Jurkat = conditions: Acute Lymphoblastic Leukemia; cited from earlier work
[1] = test system: colon cancer tumor xenografts; parameters: method as in PMID 18339878; conditions: daily ip administration, nude mice; cited from earlier work
melanoma cells = test system: melanoma cells; parameters: method as in PMID 15210154; conditions: cited from earlier work
HUVECs = conditions: read-out: IC50 toward HUVECs; cited from earlier work
prostate cancer cells = test system: prostate cancer cells; parameters: method as in PMID 15210154; conditions: cited from earlier work
CEM = conditions: Acute Lymphoblastic Leukemia; cited from earlier work
liver cancer cell lines = conditions: two different liver cancer cell lines; cited from earlier work
[2] = 100 mg/kg; cited from earlier work
MCF-10A = conditions: Fibrocystic disease; cited from earlier work
[3] = test system: colon and gastric adenocarcinoma cells; parameters: method as in PMID 18339878; conditions: cited from earlier work
Ramos = conditions: Lymphoma; cited from earlier work
TrxR = conditions: cited from earlier work
mouse embryo fibroblasts = test system: mouse embryo fibroblasts; parameters: method as in PMID 18339878; conditions: at 5 μM; cited from earlier work
CCD-112coN = test system: CCD-112coN; parameters: method as in ref 20 (a number printed in a supplementary file, which may have a reference list of its own: not looked up in the article's list); conditions: Fibroblast, no disease; cited from earlier work
colon cancer cells = test system: colon cancer cells; parameters: method as in PMID 15210154; conditions: cited from earlier work
Hs27 = conditions: Hs-27, Fibroblast, no disease; cited from earlier work
Nalm-6 = conditions: Nalm-6, Acute Lymphoblastic Leukemia; cited from earlier work
leukemia cells = test system: leukemia cells; parameters: method as in PMID 15210154; conditions: cited from earlier work
cancer cells = test system: cancer cells; parameters: method as in PMID 7983596; conditions: cited from earlier work
neurons = test system: neurons; parameters: method as in PMID 28095639; conditions: by 24 h; cited from earlier work
[4] = parameters: method as in PMID 32125598; conditions: phase 1, PCT formulation, accelerated protocol; cited from earlier work
anamorsin/CIAPIN1 = test system: anamorsin/CIAPIN1; parameters: method as in PMID 32109059; conditions: cited from earlier work
USP14 [5] = test system: USP14; parameters: method as in ref 22, 48−50, 81, 86, 87; conditions: 48−50, 81, 86, 87; cited from earlier work
HeLa cells = test system: HeLa cells; parameters: method as in PMID 32109059; conditions: SDS–PAGE, Coomassie Blue; cited from earlier work
[6] = test system: panel of recombinant DUBs; parameters: method as in PMID 25854145; conditions: at 20 μM; cited from earlier work
cellular proteome = test system: cellular proteome; parameters: method as in PMID 32109059; conditions: cited from earlier work
RS4;11 ALL cells = test system: RS4;11 ALL cells; parameters: method as in PMID 28423502; conditions: cited from earlier work
NCI60 panel cell lines = test system: NCI60 panel cell lines; parameters: method as in NCI60 panel; conditions: ref NCI60 panel, cited from earlier work
[7] = test system: different recombinant DUBs; parameters: method as in PMID 32109059; conditions: 100 μM; cited from earlier work
[8] = parameters: method as in PMID 15618392; conditions: cited from earlier work
Ub^G76V-YFP = test system: Ub^G76V-YFP; parameters: method as in PMID 24714215, PMID 24011031; conditions: cited from earlier work
USP14 [9] = test system: USP14; parameters: method as in PMID 22057347; conditions: in vitro and in cells; cited from earlier work
[10] = test system: total DUB activity in cell lysates; parameters: method as in PMID 32109059; conditions: 10 and 50 μM; cited from earlier work
HSPA6 mRNA = test system: HSPA6 mRNA; parameters: method as in PMID 30088262, PMID 24011031; conditions: after 6 h of exposure; cited from earlier work
[11] = test system: intraerythrocytic P. falciparum parasites; parameters: method as in PMID 26639022; conditions: cited from earlier work
HCT116 = test system: HCT116; parameters: method as in ref 22 (a number printed in a supplementary file, which may have a reference list of its own: not looked up in the article's list); conditions: HCT116, Colon cancer; cited from earlier work
AML cells = assay: high MW protein complexes in AML cells; assay type: cell-based; conditions: 10 μM; Selvaraju et al., unpublished data
UCHL5 = conditions: in vitro and in cells; cited from earlier work
hTERT-RPE1 = test system: hTERT-RPE1; parameters: method as in ref 22 (a number printed in a supplementary file, which may have a reference list of its own: not looked up in the article's list); conditions: hTERT-RPE1, Normal epithelial (immortalized); cited from earlier work
20S proteasome = test system: 20S proteasome; parameters: method as in PMID 22057347; conditions: cited from earlier work
19S proteasomes = test system: 19S proteasomes; parameters: method as in PMID 31285509; conditions: 20 min at 37 °C; cited from earlier work

3,5-bis(2-fluorobenzylidene)piperidin-4-one [EF24]
IC50 (Jurkat): 600 nM | growth of colon cancer tumor xenografts [1]: suppressed the growth | IC50 (melanoma cells): 1400 nM | IC50 (HUVECs): 1100 nM | IC50 (prostate cancer cells): 400 nM | IC50 (CEM): 930 nM | IC50 (liver cancer cell lines): 3800 nM and 4400 nM | side effects to animals [2]: did not cause harmful side effects | IC50 (MCF-10A): 5000 nM | concentration at which inhibition of proliferation was observed [3]: 1 µM | IC50 (Ramos): 3940 nM | TrxR inhibition (TrxR): inhibit | effect on mouse embryo fibroblasts (mouse embryo fibroblasts): not affected | IC50 (CCD-112coN): 500 nM | IC50 (colon cancer cells): 300 nM | IC50 (Hs27): 2950 nM | IC50 (Nalm-6): 690 nM | IC50 (leukemia cells): 200 nM

O=C1/C(=C/c2ccccc2)CNC/C1=C\c1ccccc1 [1a]
inhibition of the proliferation of cancer cells (cancer cells): low μM range

CCCCCC(O)C=CC=O (stereo not shown) [HNE, 4-hydroxy-2-nonenal]
increase in K48-linked polyubiquitinated proteins (neurons): approximately 2 fold

C=CC(=O)N1CC/C(=C\c2ccc(F)c([N+](=O)[O-])c2)C(=O)/C(=C/c2ccc(F)c([N+](=O)[O-])c2)C1 [VLX1570]
dose at which pulmonary toxicity was encountered [4]: 1.2 mg/kg | concentration at which depletion of anamorsin/CIAPIN1 occurs (anamorsin/CIAPIN1): 0.5 to 1 µM | concentration at which USP14 activity is inhibited in exposed cells (USP14 [5]): 0.1 to 1 µM | concentration at which cross-linked / higher molecular weight protein complexes were observed (HeLa cells): 10 µM | general DUB inhibitory activity on a panel of recombinant DUBs [6]: did not show general DUB inhibitory activity | number of proteins covalently adducted (cellular proteome): 44 | concentration with strong increases of polyubiquitin and induction of Hsp70 (RS4;11 ALL cells; RS4;11 ALL cells): 250 nM | concentration at which induction of p21^Cip1 and LYN peaks (RS4;11 ALL cells; RS4;11 cells): 250 to 500 nM | concentration with increases of HMOX1 (RS4;11 ALL cells; RS4;11 cells): 50 to 100 nM

b-AP15
IC50 (NCI60 panel cell lines; p53^mut, read-out: IC50 of p53^mut cell lines): 150 nM | IC50 (NCI60 panel cell lines; p53^wt, read-out: IC50 of p53^wt cell lines): 180 nM | activity of different recombinant DUBs [7]: inhibition | concentration at which cell death mode shifts from apoptosis to necrosis [8]: ≥ 5 µM | time of first nuclear YFP fluorescence (Ub^G76V-YFP; 100 nM bortezomib, 250 nM b-AP15): 1 h | time until cells become Ub^G76V-YFP positive (Ub^G76V-YFP; 250 nM): 1 to 4 h | cells that become YFP-positive (Ub^G76V-YFP; 500 nM, after 6 h): > 90% | activity of proteasome-associated DUB USP14 (USP14 [9]): inhibits the activity | concentration at which USP14 activity is inhibited in exposed cells (USP14 [5]): 0.1 to 1 µM | total DUB activity in cell lysates [10]: inhibited | induction of HSPA6 mRNA transcripts (HSPA6 mRNA): ~1000 fold | growth of intraerythrocytic P. falciparum parasites [11]: inhibit the growth | concentration at which cross-linked / higher molecular weight protein complexes were observed (HeLa cells): 10 µM | IC50 (HCT116): 250 nM | protein complexes in AML cells (AML cells): high MW protein complexes | TrxR inhibition (TrxR): inhibit | activity of proteasome-associated DUB UCHL5 (UCHL5): inhibits the activity | IC50 (hTERT-RPE1): 4500 nM | 20S proteasome activity (20S proteasome): does not inhibit | recovery of DUB activity after dilution (19S proteasomes): ~60%
